Values of other authors as cited in patent US20230046278A1, “METHOD FOR COLOURING KERATIN MATERIAL, COMPRISING THE USE OF AN ORGANIC C1-C6 ALKOXYSILANE AND TWO STRUCTURALLY DIFFERENT CELLULOSE TYPES” (Henkel AG & Co. KGaA, priority 2019, published 2023).
Values after ≈ are worked out from the molar mass of the structure shown.

Settings: 25° C.

SMILES | solubility in water | also measured
CCN(Cc1cccc(S(=O)(=O)O)c1)c1ccc(C(=C2C=CC(=[N+](CC)Cc3cccc(S(=O)(=O)O)c3)C=C2)c2ccccc2S(=O)(=O)[O-])cc1 [Acid Blue 9] |  | water solubility: greater than 20 % by weight
O=S(=O)(O)c1ccc(N=Nc2c(O)ccc3ccccc23)cc1 [Acid Orange 7, 4-[(2-hydroxy-1-naphthyl)azo]benzenesulfonate] | more than 7 g/L | 
Nc1cc(S(=O)(=O)O)cc2cc(S(=O)(=O)O)c(N=Nc3ccccc3)c(O)c12 [Acid Red 33, 5-amino-4-hydroxy-3-(phenylazo)-naphthalene-2,7-disulphonate] | 2500 µg/mL (≈ 5.9 mM) | 
O=[N+]([O-])c1cc([N+](=O)[O-])c2ccc(S(=O)(=O)O)cc2c1O [Acid Yellow 9, 8-hydroxy-5,7-dinitro-2-naphthalenesulfonic acid] | above 40 g/L | 
O=C(O)C1=NN(c2ccc(S(=O)(=O)O)cc2)C(=O)C1N=Nc1ccc(S(=O)(=O)O)cc1 (centres unmarked) [Acid Yellow 23, 4,5-dihydro-5-oxo-1-(4-sulfophenyl)-4-((4-sulfophenyl)azo)-1H-pyrazole-3-carboxylic acid] |  | solubility in water (in words): readily soluble
